In article PMC9921896 (Molecules, 2023):

Assays:
Test in all cases: Single concentration Kobs assay (time-dependent inhibition) in HLM
CYP2C19 = molecular target: T1, CYP2C19 (Homo sapiens, UniProt P33261); assay type: biochemical; conditions: for Kobs 2C19: HLM, 0.02 min^−1 indicates TD inhibition potential; for Kobs 2C19 / inhibition at 30 min: single concentration; for Single concentration Kobs assay (risk bin) 2C19: TD inhibition class from Kobs vs 0.02 min^−1 (Table 5 traffic lights); for inhibition at 30 min: human, human liver microsomes, significant if >50%, read-out: 2C19 R_Inh% (reversible inhibition)
T1 construct: Using HLM as the enzyme source; from tissue; host or cells: human liver microsomes
Source text: (§1) CYP inhibition evaluation is typically performed by either IC50 at single-point or IC50 Shift or abbreviated assay such as the first-order inactivity rate constant (K obs ) at single concentration.
(§2) This method yielded good correlations between the percent inhibition at 10 or 25 μ M and kinact/KI. Evaluation of TD inhibition at single concentration has been implemented in several drug discovery programs. […] Therefore, in this study, a single K obs approach has been utilized to understand the TD inhibition potential of TbB ligands. Ideally, the inhibition of CYPs can be reversible or irreversible. The data obtained from single-concentration K obs studies were analyzed to understand the same. From the data presented in Table 4, the TbB ligands have values less than 50% for reversible inhibition (R_Inh). As the qualified % reversible inhibition is considered significant if >50%, no significant reversible inhibition is observed for TbB ligands. Knowledge about enzyme inactivation half-life (E½) is also equally important as it would provide insight into the TD inhibition of a compound. E½ can be used to bin the compounds as positive or negative TD inhibitors if the values are <28 or >28, respectively. The TbB ligand 223-2 is observed to be a weak positive TD inhibitor of 1A2 and is negative TD inhibitor to the other six CYP isoforms.
(§3) The time-dependent inhibition (TDI) potential of test compounds against CYP1A2, 2B6, 2C8, 2C9, 2C19, 2D6, 3A4/5 isoforms were determined using Human liver microsomes. Assay is performed in 96-deep well plate format (n = 1). Positive controls and DMSO as negative control in each assay. To obtain 100 μ M working stock solution, 1 μ L of blank DMSO/test/reference compounds to 100 μ L 1× DPBS buffer was added and labeled as dilution plate. To the primary incubation plate, 45 μ L of primary mix was dispensed to the desired wells containing 25 μ L HLM, 10 μ L MgCl2, and 10 μ L of NADPH working solutions. To the secondary incubation plate, 95 μ L of secondary mix was dispensed to the desired wells containing 20 μ L MgCl2, 20 μ L NADPH, 10 μ L respective substrates for CYP isoform working solutions and 45 μ L 1× DPBS buffer. […] Pre-incubated the dilution plate along with primary incubation plate at 37 °C for 15 min at 450 rpm. The reaction was carried out in triplicate. After the incubation, the reaction was quenched by adding 150 μ L ice cold stop solution to all the wells followed by centrifuging the samples at 4000 rpm, 4 °C for 15 min. The supernatant samples were then transferred into vials for LC-MS/MS analysis. […]

CYP2C9 = molecular target: T2, CYP2C9 (Homo sapiens, UniProt P11712); assay type: biochemical; conditions: for Kobs 2C9: HLM, 0.02 min^−1 indicates TD inhibition potential; for Kobs 2C9 / inhibition at 30 min: single concentration; for Single concentration Kobs assay (risk bin) 2C9: TD inhibition class from Kobs vs 0.02 min^−1 (Table 5 traffic lights); for inhibition at 30 min: human, human liver microsomes, significant if >50%, read-out: 2C9 R_Inh% (reversible inhibition)
T2 construct: Using HLM as the enzyme source; from tissue; host or cells: human liver microsomes
Source text: as §1, §2, §3

CYP1A2 = molecular target: T3, CYP1A2 (Homo sapiens, UniProt P05177); assay type: biochemical; conditions: for Kobs 1A2: HLM, 0.02 min^−1 indicates TD inhibition potential; for Kobs 1A2 / inhibition at 30 min: single concentration; for Single concentration Kobs assay (risk bin) 1A2: TD inhibition class from Kobs vs 0.02 min^−1 (Table 5 traffic lights); for inhibition at 30 min: human, human liver microsomes, significant if >50%, read-out: 1A2 R_Inh% (reversible inhibition)
T3 construct: Using HLM as the enzyme source; from tissue; host or cells: human liver microsomes
T3 sequence (P05177 1-516): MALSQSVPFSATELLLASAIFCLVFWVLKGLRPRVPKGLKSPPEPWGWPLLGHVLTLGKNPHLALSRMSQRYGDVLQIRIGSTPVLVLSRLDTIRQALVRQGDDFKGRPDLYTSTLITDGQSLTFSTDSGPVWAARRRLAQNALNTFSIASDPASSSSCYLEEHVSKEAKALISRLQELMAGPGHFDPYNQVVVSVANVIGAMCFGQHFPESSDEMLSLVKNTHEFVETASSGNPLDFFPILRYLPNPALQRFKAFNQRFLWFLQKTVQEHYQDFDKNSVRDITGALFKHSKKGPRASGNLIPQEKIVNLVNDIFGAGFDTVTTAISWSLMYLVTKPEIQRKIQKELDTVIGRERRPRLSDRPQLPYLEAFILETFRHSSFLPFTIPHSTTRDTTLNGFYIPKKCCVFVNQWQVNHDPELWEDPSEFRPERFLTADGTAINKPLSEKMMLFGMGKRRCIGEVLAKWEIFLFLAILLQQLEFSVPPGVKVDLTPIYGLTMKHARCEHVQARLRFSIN
Source text: as §1, §2, §3

CYP3A4/5 = assay type: biochemical, human; conditions: for Kobs 3A4: HLM, 0.02 min^−1 indicates TD inhibition potential; for Kobs 3A4 / inhibition at 30 min: single concentration; for Single concentration Kobs assay (risk bin) 3A4: TD inhibition class from Kobs vs 0.02 min^−1 (Table 5 traffic lights); for inhibition at 30 min: human, human liver microsomes, significant if >50%, read-out: 3A4 R_Inh% (reversible inhibition)
Source text: as §1, §2
The time-dependent inhibition (TDI) potential of test compounds against CYP1A2, 2B6, 2C8, 2C9, 2C19, 2D6, 3A4/5 isoforms were determined using Human liver microsomes. Assay is performed in 96-deep well plate format (n = 1). Positive controls and DMSO as negative control in each assay. To obtain 100 μ M working stock solution, 1 μ L of blank DMSO/test/reference compounds to 100 μ L 1× DPBS buffer was added and labeled as dilution plate. To the primary incubation plate, 45 μ L of primary mix was dispensed to the desired wells containing 25 μ L HLM, 10 μ L MgCl2, and 10 μ L of NADPH working solutions. To the secondary incubation plate, 95 μ L of secondary mix was dispensed to the desired wells containing 20 μ L MgCl2, 20 μ L NADPH, 10 μ L respective substrates for CYP isoform working solutions and 45 μ L 1× DPBS buffer. Each of these four plates were labeled with their respective time points, i.e., 0, 6, 16, 32 min. Pre-incubated the dilution plate along with primary incubation plate at 37 °C for 15 min at 450 rpm. The reaction was carried out in triplicate. After the incubation, the reaction was quenched by adding 150 μ L ice cold stop solution to all the wells followed by centrifuging the samples at 4000 rpm, 4 °C for 15 min. The supernatant samples were then transferred into vials for LC-MS/MS analysis. The percent Reversible Inhibition was calculated using the following formula. %Reversibleinhibition=100−(PARtestcompt0×100)/(PARaverageDMSOt0)

T1 sequence (P33261 whole entry): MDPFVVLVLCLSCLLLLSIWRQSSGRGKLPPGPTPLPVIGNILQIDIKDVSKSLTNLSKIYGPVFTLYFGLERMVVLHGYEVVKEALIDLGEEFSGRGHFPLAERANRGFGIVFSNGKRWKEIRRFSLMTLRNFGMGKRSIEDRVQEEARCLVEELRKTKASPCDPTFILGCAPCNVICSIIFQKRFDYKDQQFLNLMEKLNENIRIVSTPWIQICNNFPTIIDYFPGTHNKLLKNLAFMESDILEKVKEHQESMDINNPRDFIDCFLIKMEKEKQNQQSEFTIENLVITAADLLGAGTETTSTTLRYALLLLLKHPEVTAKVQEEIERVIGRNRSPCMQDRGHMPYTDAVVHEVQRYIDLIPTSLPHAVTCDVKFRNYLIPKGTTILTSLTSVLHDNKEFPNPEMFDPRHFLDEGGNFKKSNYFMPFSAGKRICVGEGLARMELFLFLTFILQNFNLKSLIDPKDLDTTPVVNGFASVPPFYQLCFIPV
T2 sequence (P11712 whole entry): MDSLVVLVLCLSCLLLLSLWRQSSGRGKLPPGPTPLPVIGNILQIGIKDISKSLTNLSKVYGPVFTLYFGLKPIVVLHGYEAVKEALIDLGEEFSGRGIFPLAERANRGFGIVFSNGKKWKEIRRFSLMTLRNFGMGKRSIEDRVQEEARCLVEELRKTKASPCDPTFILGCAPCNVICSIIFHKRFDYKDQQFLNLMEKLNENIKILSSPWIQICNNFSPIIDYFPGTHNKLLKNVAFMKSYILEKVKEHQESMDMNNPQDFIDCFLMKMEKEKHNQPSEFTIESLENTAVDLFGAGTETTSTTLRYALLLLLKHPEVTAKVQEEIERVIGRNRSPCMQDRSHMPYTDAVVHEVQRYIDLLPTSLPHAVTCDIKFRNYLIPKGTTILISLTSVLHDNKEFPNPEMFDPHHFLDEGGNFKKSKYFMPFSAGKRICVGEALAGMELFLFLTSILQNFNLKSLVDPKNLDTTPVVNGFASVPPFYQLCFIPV

Kobs 2C19 (CYP2C19) [min⁻¹]	Kobs 2C19 (CYP2C19; listed as 223-02) [min⁻¹]	Single concentration Kobs assay (risk bin) 2C19 (CYP2C19)	inhibition at 30 min (CYP2C19) [%]	Kobs 2C9 (CYP2C9) [min⁻¹]	Single concentration Kobs assay (risk bin) 2C9 (CYP2C9)	inhibition at 30 min (CYP2C9) [%]	Kobs 1A2 (CYP1A2) [min⁻¹]	Kobs 1A2 (CYP1A2; listed as 223-02) [min⁻¹]	Single concentration Kobs assay (risk bin) 1A2 (CYP1A2)	inhibition at 30 min (CYP1A2) [%]	Single concentration Kobs assay (risk bin) 3A4 (CYP3A4/5)	inhibition at 30 min (CYP3A4/5) [%]	Kobs 2C19 (CYP2C19; listed as 223-03) [min⁻¹]	Kobs 2C9 (CYP2C9; listed as 223-03) [min⁻¹]	Kobs 1A2 (CYP1A2; listed as 223-03) [min⁻¹]	SMILES	Kobs 3A4 (CYP3A4/5) [min⁻¹]
0.0206	0.02058	weak positive inhibitor	< 50	0.005304	negative inhibitor	< 50	0.0159	0.01594	weak positive inhibitor	< 50	negative inhibitor	< 50	–	–	–	COc1cc(-c2nnn(-c3cc(OC)c(O)c(OC)c3)n2)cc(OC)c1O [223-2]	0.006312
0.0306	–	positive inhibitor	< 50	0.0748	positive inhibitor	< 50	0.0333	–	positive inhibitor	< 50	weak positive inhibitor	< 50	0.03055	0.07477	0.03334	Cc1cc(-c2nnn(-c3cc(C)c(O)c(C)c3)n2)cc(C)c1O [223-3]	0.02143
0.00365	–	negative inhibitor	< 50	–	positive inhibitor	< 50	0.01456	–	weak positive inhibitor	< 50	negative inhibitor	< 50	–	–	–	Oc1ccc(-c2nnn(-c3ccc(O)cc3)n2)cc1 [223-10]	0.001719
